Positions of bridges follow the written chain, without caps; N, C: chain ends. Residues, ends and D or L forms follow the SMILES beside them.
Assays:
[1] = system: FabG gene; test: FabG transcription level by quantitative real-time PCR; type: cell-based, A. baumannii, E. coli, K. pneumoniae, P. aeruginosa; conditions: all four bacteria, RNAs from transcriptome analysis (16 μg/ml, 30 min), 2^-ΔΔCT, rpsL reference
Protocol: Quantitative real-time PCR (RT-PCR) was performed following the 2^-ΔΔCT method with RNAs from the aforementioned transcriptome analysis ([Livak and Schmittgen, 2001]; [Liu C. et al., 2014]). Untreated pathogen strains were used as the calibrator strains, and corresponding ribosomal rpsL genes were used as housekeeping reference genes with the primers shown in Supplementary Table S1 ([Dumas et al., 2006]).
FIGURE 5 Expression of FabG increased after tachyplesin treatment. Quantitative real-time PCR was performed following the 2^-ΔΔCT method. Untreated pathogen strains were used as the calibrator strains, and the corresponding ribosomal rpsL genes were used as housekeeping reference gene with the primers shown in Supplementary Table S1.

[2] = system: P. aeruginosa 1409; test: MIC against MDR clinical isolate; type: cell-based, Pseudomonas aeruginosa; conditions: P. aeruginosa 1409
[3] = system: Escherichia coli strain DH5α; conditions: 37°C, 2 mg/ml, stability judged by MIC against DH5α, tested during the first 6 h
Protocol: These studies were carried out as we previously reported with slight modifications and briefly introduced as follows ([Liu et al., 2017]). […] Cytotoxicity in different cell lines was assessed using the Cell Proliferation Kit II (XTT) (Roche), and cytotoxicity in hemocytes was evaluated by the increase in the absorbance at 540 nm after peptide incubation. Membrane rupture was indicated by the entrance of the DNA-binding fluorescent dye PI into MDR clinical isolates of P. aeruginosa strain 1409. Membrane translocation of N-terminal FITC-conjugated tachyplesin III (purity ≥ 95%, synthesized by GL Biochem Co., Ltd, Shanghai, China) into MDR clinical isolates of Acinetobacter baumannii strain 1408 were detected by confocal laser-scanning microscopy.
Tachyplesin III (2 mg/ml) was incubated in either sterile deionized water or mouse serum at 37°C for various lengths of time, aliquots were taken, and MICs against DH5α cells were tested. Stability of the MIC indicates the stability of tachyplesin III.

[4] = system: K. pneumoniae 5; test: Transcriptome analysis (RNA sequencing, FPKM, DESeq); type: cell-based, Klebsiella pneumoniae; conditions: Kp; Ta 16 μg/ml, 30 min, 37°C
Protocol: The Vitek 32 system (bioMerieux, France) and 16S rDNA sequencing were used to verify the clinical isolates A. baumannii 1408, P. aeruginosa 1409, Klebsiella pneumoniae 5 and E. coli 513, which were grown overnight in Luria-Bertani (LB) medium at 37°C with constant shaking at 220 rpm to reach the middle of their logarithmic growth phase. […] After the addition of 2 volumes of RNAprotect Bacteria Reagent (QIAGEN) to stabilized RNA, samples were vortexed for 5 s, incubated for 5 min at room temperature (15–25°C) and collected by centrifugation at 4°C for 5 min at 4000 g.
RNA isolation and sequencing were performed by Novogene Bioinformatics Technology Co., Ltd. (Beijing, China) as previously described ([Liu B. et al., 2014]). Clean reads were mapped to the corresponding bacterial genomes using Bowtie 2 software ([Langmead and Salzberg, 2012]). Gene expression was calculated using the FPKM (expected number of fragments per kilobase of transcript sequence per millions of base pairs sequenced) method with HTSeq software (union model) ([Anders et al., 2015]). Differentially expressed genes were selected based on the DESeq R package with Padj values < 0.05 ([Anders and Huber, 2010]). KEGG pathway analysis was performed using KOBAS (2.0), and the corrected p value cut-off was set at 0.05 ([Li et al., 2015]).

Question: Which results are given for `CC[C@H](C)[C@@H]1NC(=O)CNC(=O)[C@H](CCCNC(=N)N)NC(=O)[C@H](Cc2ccc(O)cc2)NC(=O)[C@@H]2CSSC[C@H](NC1=O)C(=O)N[C@@H](Cc1ccc(O)cc1)C(=O)N[C@@H](CCCNC(=N)N)C(=O)N[C@@H](CCCCN)C(=O)N[C@H](C(=O)N[C@@H](CCCNC(=N)N)C(N)=O)CSSC[C@H](NC(=O)[C@H](Cc1c[nH]c3ccccc13)NC(=O)[C@@H](N)CCCCN)C(=O)N[C@@H](Cc1ccccc1)C(=O)N[C@@H](CCCNC(=N)N)C(=O)N[C@@H](C(C)C)C(=O)N2` [tachyplesin III] (H-KWCFRVCYRGICYRKCR-NH2; disulfide 3-16, 7-12 (inferred); N-terminus and C-terminus assumed)?
Answer: FabG expression by quantitative real-time PCR [1]: elevations; 16 μg/ml tachyplesin III expressed as multiple of MIC [2]: 2 × MIC; time stable in mouse serum [3]: at least 6 h; Fold change after Ta treatment, gene KPNJ2_01584 (Enoyl-CoA hydratase) [4]: 2; Fold change after Ta treatment, gene KPNJ2_03426 (3-ketoacyl-acyl carrier protein reductase) [4]: 1.83

Reference: paper PMC5938390, “Tachyplesin Causes Membrane Instability That Kills Multidrug-Resistant Bacteria by Inhibiting the 3-Ketoacyl Carrier Protein Reductase FabG” (Frontiers in Microbiology, 2018)
